One compound from ChEMBL document CHEMBL5357060, “Cytotoxic Polyhydroxy-Isoprenoids from Neodidymelliopsis negundinis” (J Nat Prod, 2024) can be followed below.

Structures are written as SMILES. In brackets after ≈: the same amount, converted by molar mass.

As a reminder, the IC50 is the midpoint of a concentration-inhibition curve. As a reminder, the MIC is the lowest concentration that inhibits growth of the organism.

For one series, the system named is KB 3-1. Put plainly: Antiproliferative activity against human KB-3-1 cells assessed as reduction in cell growth incubated for 5 days by MTT assay. The class given is functional, cell-based. As to conditions: KB 3-1, 120 h.
For series [1], the system named is Staphylococcus aureus. Put plainly: Antibiofilm activity against Staphylococcus aureus DSM 1104 assessed as increase in biofilm inhibition at 250 ug/ml incubated for 24 hrs by crystal violet staining based plate reader analysis relative to control. It is filed as functional. More on the design: scale not given: the % may be the effect or the level left. As to conditions: dose 250 µg/ml.

Series [2] has as its system Staphylococcus aureus. The series can be described thus: Antibacterial activity against Staphylococcus aureus DSM 346 incubated overnight by serial dilution assay. It is filed as functional.
The subject of series [3] is Candida albicans. The series can be described thus: Antibiofilm activity against Candida albicans DSM 11225 assessed as increase in biofilm inhibition at 125 microg/ml incubated for 24 hrs by crystal violet staining based plate reader analysis relative to control. As to conditions: dose 125 µg/ml. The class given is functional. More on the design: scale not given: the % may be the effect or the level left.

In a further series the test system is PC-3. The series can be described thus: Antiproliferative activity against human PC-3 cells assessed as reduction in cell growth incubated for 5 days by MTT assay. The class given is functional, cell-based. As to conditions: PC-3, 120 h. (Formazan colour is commonly taken as a measure of viable cells.)
A further series has as its system A549. The series can be described thus: Antiproliferative activity against human A549 cells assessed as reduction in cell growth incubated for 5 days by MTT assay. The class given is functional, cell-based. As to conditions: A549, 120 h.
Series [4] has as its system Candida albicans. The series can be described thus: Antibiofilm activity against Candida albicans DSM 11225 assessed as increase in biofilm inhibition at 250 ug/ml incubated for 24 hrs by crystal violet staining based plate reader analysis relative to control. The class given is functional. More on the design: scale not given: the % may be the effect or the level left. The settings on record: dose 250 µg/ml.

The next series concerns Bacillus subtilis. The series can be described thus: Antibacterial activity against Bacillus subtilis DSM 10 incubated overnight by serial dilution assay. It is filed as functional.
A further series concerns A-431. Put plainly: Antiproliferative activity against human A-431 cells assessed as reduction in cell growth incubated for 5 days by MTT assay. It is filed as functional, cell-based. The settings on record: A-431, 120 h.
The test system of the next series is SK-OV-3. Put plainly: Antiproliferative activity against human SK-OV-3 cells assessed as reduction in cell growth incubated for 5 days by MTT assay. It is filed as functional, cell-based. As to conditions: SK-OV-3, 120 h.
The next series has as its system MCF7. Put plainly: Antiproliferative activity against human MCF7 cells assessed as reduction in cell growth incubated for 5 days by MTT assay. As to conditions: MCF7, 120 h. It is filed as functional, cell-based.
The nature of series [5]: Cytotoxicity against mouse L929 cells assessed as reduction in cell viability incubated for 5 days by MTT assay. It is filed as toxicity, cell-based.

Take `C/C(=C\CC/C(C)=C/CO[C@@H]1O[C@H](CO)[C@@H](O)[C@H](O)[C@@H]1O)CC/C=C(\C)CCCC(C)(O)CCCC(C)(O)CCCC(C)(O)CCCC(C)(O)CCCC(C)(O)CCC(O)C(C)(C)O` (some centres not stated): the IC50 in the series on KB 3-1 stood at 8.3 µM; in the series on PC-3 it was 4.8 µM; in the series on A549, 4.8 µM; in the series with A-431 it was 4.8 µM; with SK-OV-3, 4.8 µM; in the series on MCF7, 4.8 µM. For the same compound, the results for the Activity in the series on Staphylococcus aureus [1], with Candida albicans [3] and in the series on Candida albicans [4] were 85%, 66% and 71%, respectively. Moreover, the MIC against Staphylococcus aureus [2] turned out to be 33.3 µg/mL (≈ 36.3 µM); with Bacillus subtilis it was 16.6 µg/mL (≈ 18.1 µM). For the same compound, in [5], the IC50 at 5 days was 8.1 µM.
